Results as given in patent publication US6500934B1, “Bivalent agonists for G-protein coupled receptors” (priority 1996, dated 2002).

Assays:
α-MSH receptor [1] = test: Frog melanocyte assay, inhibition of α-MSH (5 nM) mediated pigment dispersion in wild type melanophores; assay type: cell-based, Xenopus laevis; settings: 5 nM α-MSH, t=30 min, FIG. 5
Protocol: Frog Melanocyte Assay. Xenopus laevis melanophores were maintained in culture as described by M. Engel et al., Biochemistry 30, 3161-3169 (1991); C. A. Slate et al., Int. J. Peptide Protein Res. 45, 290-298 (1995); and C. Plank et al., J. Biol. Chem. 269, 12918-12924 (1994). Transient expression of bombesin receptor plasmid DNA (pJG3.6BR) in melanophores was achieved by electroporation (C. A. Slate et al., Int. J. Peptide Protein Res. 45, 290-298 (1995)). […]
Phototransmission was measured at 620 nm using a 340 ATTC microtiter plate reader (SLT Lab Instruments). Transmission readings were taken 1 hour following the addition of melatonin (Ti), and monomers or dimers were added immediately. Additional readings (Tf) were made at various time points (5-60 min). […] The final data was normalized and expressed as a percentage of maximal pigment dispersion (ymax).
For this study, a rapid, functional assay for G-protein-coupled receptors in frog melanophore cells (C. K. Jayawickreme et al., J. Biol. Chem. 269, 29846-29854 (1994); M. N. Potenza et al., Anal. Biochem. 206, 315-322 (1992); G. F. Graminski et al., J. Biol. Chem. 268, 5957-5964 (1993); S. Karne et al., J. Biol. Chem. 268, 19126-19133 (1993); and C. K. Jayawickreme et al., Proc. Natl. Acad. Sci. USA 91, 1614-1618 (1994)) was used. […] In this study, the effect of monomeric and dimeric peptides on pigment dispersion was determined. […]

α-MSH receptor [2] = test: Frog melanocyte assay, pigment dispersion (agonist mode) in wild type melanophores; assay type: cell-based, Xenopus laevis; settings: for pigment dispersion (result in words): α-MSH-ANT dimer: at higher concentrations (FIG. 6); for EC50: FIG. 4
Protocol: Frog Melanocyte Assay. Xenopus laevis melanophores were maintained in culture as described by M. Engel et al., Biochemistry 30, 3161-3169 (1991); C. A. Slate et al., Int. J. Peptide Protein Res. 45, 290-298 (1995); and C. Plank et al., J. Biol. Chem. 269, 12918-12924 (1994). Transient expression of bombesin receptor plasmid DNA (pJG3.6BR) in melanophores was achieved by electroporation (C. A. Slate et al., Int. J. Peptide Protein Res. 45, 290-298 (1995)). Melanophores were plated (15,000 per well) on 96 well tissue culture plates (Falcon), and time and dose-response curves were obtained by microtiter plate assays (R. Duncan et al., Clin. Pharmacokinet. 27, 290-306 (1994); M. Engel et al., Biochemistry 30, 3161-3169 (1991); C. A. Slate et al., Int. J. Peptide Protein Res. 45, 290-298 (1995); C. Plank et al., J. Biol. Chem. 269, 12918-12924 (1994); and P. M. Conn et al., Endocrinology 111, 335-337 (1982)). Prior to addition of monomers or dimers, cells were washed and then incubated for one hour with 0.7× L15 media supplemented with 1 nM melatonin. […] Monomers or dimers were added to the microtiter wells in 20 μl aliquots at 10 times their final concentration. For IC50 curves, the media also was supplemented with 5 nM α-MSH.
Phototransmission was measured at 620 nm using a 340 ATTC microtiter plate reader (SLT Lab Instruments). Transmission readings were taken 1 hour following the addition of melatonin (Ti), and monomers or dimers were added immediately. Additional readings (Tf) were made at various time points (5-60 min). Data was curve fitted by nonlinear regression with y=1−(Tf/Ti). The final data was normalized and expressed as a percentage of maximal pigment dispersion (ymax).
For this study, a rapid, functional assay for G-protein-coupled receptors in frog melanophore cells (C. K. Jayawickreme et al., J. Biol. Chem. 269, 29846-29854 (1994); M. N. Potenza et al., Anal. Biochem. 206, 315-322 (1992); G. F. Graminski et al., J. Biol. Chem. 268, 5957-5964 (1993); S. Karne et al., J. Biol. Chem. 268, 19126-19133 (1993); and C. K. Jayawickreme et al., Proc. Natl. Acad. Sci. USA 91, 1614-1618 (1994)) was used. In frog melanocyte cells, ligands like α-MSH that mediate increases in cellular cyclic AMP levels, or like endothelin 3 that stimulate PI metabolism (S. Karne et al., J. Biol. Chem. 268, 19126-19133 (1993)), cause pigment dispersion and cell darkening, whereas inhibitors of cyclic AMP synthesis, like melatonin, cause pigment aggregation and cell lightening. In this study, the effect of monomeric and dimeric peptides on pigment dispersion was determined.
Wild type melanophores were used for assays involving α-MSH and α-MSH-ANT monomers and dimers. Melanophores that were transfected with a plasmid that contained the bombesin receptor coding region were used for assays involving bombesin monomer and dimer (G. F. Graminski et al., J. Biol. Chem. 268, 5957-5964 (1993); and C. K. Jayawickreme et al., Proc. Natl. Acad. Sci. USA 91, 1614-1618 (1994)).

[3] = wild type melanophores, t=30 min

Substance: MPdFRdWFKPV-GGGεAhx-K(20)-βAla [α-MSH-ANT monomer, assay monomer lacking cysteine]
- IC50 (α-MSH receptor [1]): 120 ± 6 nM
- stimulation of dispersion below a concentration of 1 μM (α-MSH receptor [2]; below 1 μM, absence of α-MSH): did not stimulate dispersion
- pigment dispersion (result in words) (α-MSH receptor [2]; wild type melanophores): No significant dispersion

Substance: SYSMEHFRWGKPV-GGG-εAhx-K(20)-βAla [α-MSH monomer]
- EC50 (α-MSH receptor [2]; [3]): 372 ± 18 nM
- pigment dispersion (result in words) (α-MSH receptor [2]; wild type melanophores): stimulated dispersion in a time and dose-dependent manner

Substance: homodimer: ligand domains SYSMEHFRWGKPV-, spacer GGG-εAhx, K(20), two disulfide-linked cysteines end capped at C-termini with β-alanine [α-MSH dimer]
- EC50 of dimer lower as compared to the monomer (fold) (α-MSH receptor [2]; [3]): approximately 5 fold
- EC50 (α-MSH receptor [2]; [3]): 72.5 ± 5 nM
- pigment dispersion (result in words) (α-MSH receptor [2]; wild type melanophores): stimulated dispersion in a time and dose-dependent manner
